In patent EP0523013B1, “Use of benzimidazoline-2-oxo-1-carboxylic acid derivatives in the treatment of organic mental diseases” (BOEHRINGER INGELHEIM ITALIA S.p.A., priority 1991, dated 1993):
Counter-ions that a name gives are not always drawn. Marks after values point to notes of the source that are not given here.

Tested on: scopolamine-induced impairment of passive avoidance response
Assay: passive avoidance test, scopolamine-induced impairment
Type: in vivo, Male Sprague Dawley rats
Method: Male Sprague Dawley rats weighing 175-200 g were used. The animals were kept in a regulated environment (20 ± 1°C, 50-55% humidity and 12 hours light-dark cycle, light on at 7.00 a.m.) and maintained with standard pellet diet. The apparatus used for the passive avoidance test was composed of a dark compartment (30x30x30 cm) with a grid floor and a compartment (30x30x30 cm) illuminated from above by a 20 W daylight lamp, the 2 compartments being separated by a guillotine-type door (10x8 cm). Scrambled electric shocks were delivered to the grid floor by an isolated stimulator.
Rats were divided in groups of 10 animals. • a) Training: each rat was placed gently in the lighted compartment and 10 sec later the door was opened. As soon as the rat had moved into the dark compartment and the door had been shut, a 1.6 mA foot-shock was applied for 1 sec. The rat was immediately removed from the apparatus and returned to the home cage. • b) Retention: the retention test was carried out 24 hours later by an observer unaware of the given treatment. Each rat was placed into the lighted compartment again and the step-through latency was recorded. The test is stopped when the rat enters the dark compartment or when it fails to do so in […] 180 sec.

[1] = step-through latency in retention test 24 hours after training, test compound 0.03 mg/kg i.p. 15 min before scopolamine 0.75 mg/kg i.p., which was given 30 min before training, mean ± S.E.M, 10 animals, cut-off 180 sec

CN1[C@@H]2CC[C@H]1C[C@@H](NC(=O)n1c(=O)[nH]c3ccccc31)C2 [Compound 1, N-(endo-8-methyl-8-azabicyclo[3.2.1]oct-3-yl)-2,3-dihydro-2-oxo-1H-benzimidazole-1-carboxamide]
LATENCY (step-through latency in retention test 24 hours after training, test compound 0.01 mg/kg i.p. 15 min before scopolamine 0.75 mg/kg i.p., which was given 30 min before training, mean ± S.E.M, 10 animals, cut-off 180 sec): 136 ± 16.0 s
LATENCY [1]: 109 ± 17.0 s

CCn1c(=O)n(C(=O)N[C@H]2C[C@H]3CC[C@@H](C2)N3C)c2ccccc21 [Compound 5, N-(endo-8-methyl-8-azabicyclo[3.2.1]oct.-3-yl)-2,3-dihydro-3-ethyl-2-oxo-1H-benzimidazole-1-carboxamide]
LATENCY [1]: 113 ± 17.0 s

CC(C)n1c(=O)n(C(=O)N[C@H]2C[C@H]3CC[C@@H](C2)N3C)c2ccccc21 [Compound 6, N-(endo-8-methyl-8-azabicyclo[3.2.1]oct.-3-yl)-2,3-dihydro-3-(1-methyl)ethyl-2-oxo-1H-benzimidazole-1-carboxamide, hydrochloric acid salt]
LATENCY (SEC) [1]: 140 + 16 ** SEC

CN1[C@@H]2C[C@@H](OC(=O)[C@H](CO)c3ccccc3)C[C@H]1[C@@H]1O[C@@H]12 [Scopolamine, scopolamine, reference compound]
LATENCY (rat, in vivo, ip, 0.75 mg/kg): 66 ± 18.7 s
